± gives the standard deviation of the averaged measurements.
Columns and labels:
Settings in all cases: exposure: 6-8 hpf to 5 dpf, scored at 6 dpf
[1] = system: Danio rerio embryo/larva; test: max % larvae with pigmentation defects across tested concentrations; higher = more toxic
[2] = system: Danio rerio embryo/larva; test: max % larvae with spinal defects across tested concentrations; higher = more toxic; extreme values may be limits of the assay
[3] = system: Danio rerio embryo/larva; test: max % larvae with uninflated swim bladder across tested concentrations; higher = more toxic; extreme values may be limits of the assay
[4] = system: Danio rerio embryo/larva; test: max % larvae with craniofacial defects across tested concentrations; higher = more toxic; extreme values may be limits of the assay
[5] = system: Danio rerio embryo/larva; test: max % larvae with edema across tested concentrations; higher = more toxic; extreme values may be limits of the assay
[6] = system: Danio rerio embryo/larva; test: max % larvae with tail defects across tested concentrations; higher = more toxic; extreme values may be limits of the assay
[7] = system: Danio rerio embryo/larva; test: max % larvae with blood pooling across tested concentrations; higher = more toxic; extreme values may be limits of the assay
[8] = system: Danio rerio embryo/larva; test: max % larvae with abnormal position across tested concentrations; higher = more toxic; extreme values may be limits of the assay
[9] = system: Danio rerio embryo/larva; test: max % larvae generally abnormal across tested concentrations; higher = more toxic; extreme values may be limits of the assay

Structure (SMILES) | max % larvae [1] [%] | max % larvae [2] [%] | max % larvae [3] [%] | max % larvae [4] [%] | max % larvae [5] [%] | max % larvae [6] [%] | max % larvae [7] [%] | max % larvae [8] [%] | max % larvae generally abnormal across tested concentrations [9] [%]
C=CC(=O)OCC(F)(F)C(F)(F)C(F)(F)COC(=O)C=C [1H,1H,5H,5H-Perfluoro-1,5-pentanediol diacrylate] (max tested concentration (log10 uM): 1) | 0 | 8.33 | 16.7 | 33.3 | 33.3 | 25 | 0 | 0 | 33.3
CO[Si](C)(CCC(F)(F)C(F)(F)C(F)(F)C(F)(F)C(F)(F)C(F)(F)F)OC [Dimethoxymethyl((perfluorohexyl)ethyl)silane] (max tested concentration (log10 uM): 1.60206) | 0 | 0 | 0 | 0 | 0 | 0 | 0 | 0 | 0
OCC(F)(F)C(F)(F)C(F)(F)F [3:1 Fluorotelomer alcohol] (max tested concentration (log10 uM): 2) | 0 | 0 | 0 | 0 | 8.33 | 0 | 8.33 | 0 | 8.33
O=S(=O)(O)CCC(F)(F)C(F)(F)C(F)(F)C(F)(F)C(F)(F)C(F)(F)C(F)(F)C(F)(F)F [8:2 Fluorotelomer sulfonic acid] (max tested concentration (log10 uM): 2) | 0 | 0 | 0 | 0 | 0 | 0 | 0 | 0 | 0
FC(F)(Br)C(F)(F)C(F)(F)C(F)(F)C(F)(F)C(F)(F)Br [1,6-Dibromododecafluorohexane] (max tested concentration (log10 uM): 2) | 0 | 0 | 0 | 0 | 4.17 | 0 | 0 | 0 | 4.17
OCCC(F)(F)C(F)(F)C(F)(F)C(F)(F)C(F)(F)C(F)(F)C(F)(F)C(F)(F)F [2-(Perfluorooctyl)ethanol] (max tested concentration (log10 uM): 2) | 0 | 0 | 44.4 | 0 | 19.4 | 0 | 0 | 8.33 | 22.2
FC(F)(F)C(F)(F)C(F)(F)C(F)(F)C(F)(F)C(F)(F)CCS [2-(Perfluorohexyl)ethanethiol] (max tested concentration (log10 uM): 1.60206) | 0 | 0 | 16.7 | 0 | 8.33 | 0 | 0 | 0 | 8.33
C=C(C)C(=O)OCCC(F)(F)C(F)(F)C(F)(F)C(F)(F)C(F)(F)C(F)(F)F [2-(Perfluorohexyl)ethyl methacrylate] (max tested concentration (log10 uM): 2) | 0 | 0 | 0 | 0 | 0 | 0 | 0 | 0 | 0
C=CC(=O)OCC(F)(F)C(F)(F)C(F)(F)C(F)(F)C(F)(F)C(F)(F)C(F)(F)F [1H,1H-Perfluorooctyl acrylate] (max tested concentration (log10 uM): 2) | 0 | 0 | 0 | 0 | 0 | 0 | 0 | 0 | 0
C=C(C)C(=O)OCCC(F)(F)C(F)(F)C(F)(F)C(F)(F)C(F)(C(F)(F)F)C(F)(F)F [(Perfluoro-5-methylhexyl)ethyl 2-methylprop-2-enoate] (max tested concentration (log10 uM): 2) | 0 | 0 | 0 | 0 | 0 | 0 | 0 | 0 | 0
OCC(F)(F)C(F)(F)C(F)(F)C(F)F [1H,1H,5H-Perfluoropentanol] (max tested concentration (log10 uM): 2) | 0 | 0 | 0 | 0 | 0 | 0 | 0 | 0 | 0
O=C(O)C(F)(F)OC(F)(F)C(F)(F)OC(F)(F)F [Perfluoro-3,6-dioxaheptanoic acid] (max tested concentration (log10 uM): 2) | 0 | 0 | 0 | 0 | 4.17 | 0 | 0 | 0 | 4.17
N=C(N)C(F)(F)C(F)(F)C(F)(F)C(F)(F)C(F)(F)C(F)(F)C(F)(F)F [Perfluorooctanamidine] (max tested concentration (log10 uM): 1) | 0 | 0 | 0 | 0 | 4.17 | 0 | 16.7 | 0 | 8.33
NC(=O)C(F)(F)C(F)(F)C(F)(F)C(F)(F)C(N)=O [Octafluoroadipamide] (max tested concentration (log10 uM): 2) | 0 | 0 | 0 | 0 | 0 | 0 | 0 | 0 | 0
O=C(O)C(F)(F)C(F)(F)C(F)(F)C(F)(F)C(F)(F)C(F)(F)F [Perfluoroheptanoic acid] (max tested concentration (log10 uM): 2) | 0 | 0 | 16.7 | 0 | 8.33 | 0 | 0 | 0 | 8.33
O=C(O)C(F)(F)C(F)(F)C(F)(F)C(F)(F)C(F)(F)C(F)(F)C(F)(F)C(F)F [9H-Perfluorononanoic acid] (max tested concentration (log10 uM): 2) | 0 | 0 | 16.7 | 0 | 10.4 | 0 | 0 | 2.08 | 10.4

Structure (SMILES) | max % larvae [1] [%] | max % larvae [2] [%] | max % larvae [3] [%] | max % larvae [4] [%] | max % larvae [5] [%] | max % larvae [6] [%] | max % larvae [7] [%] | max % larvae [8] [%] | max % larvae generally abnormal across tested concentrations [9] [%]
O=C(O)C(F)(F)C(F)(F)C(F)(F)C(F)(F)C(F)(F)C(F)(F)C(F)(F)C(F)(F)C(F)(F)C(F)(F)C(F)(F)C(F)(F)C(F)(F)F [Perfluorotetradecanoic acid] (max tested concentration (log10 uM): 1.30103) | 0 | 0 | 4.55 | 0 | 0 | 0 | 0 | 0 | 2.27
C=C(C)C(=O)OCCC(F)(F)C(F)(F)C(F)(F)C(F)(F)C(F)(F)C(F)(F)C(F)(F)C(F)(F)F [2-(Perfluorooctyl)ethyl methacrylate] (max tested concentration (log10 uM): 2) | 0 | 0 | 0 | 0 | 0 | 0 | 0 | 0 | 0
O=C(O)C(F)(F)C(F)(F)C(F)(F)C(F)(F)C(F)(F)C(F)(F)C(F)(F)F [Perfluorooctanoic acid] (max tested concentration (log10 uM): 2) | 0 | 0 | 16.7 | 0 | 16.7 | 4.17 | 0 | 8.33 | 16.7
OCC(F)(F)OC(F)(F)C(F)(F)OC(F)(F)CO [1H,1H,8H,8H-Perfluoro-3,6-dioxaoctane-1,8-diol] (max tested concentration (log10 uM): 2) | 0 | 0 | 0 | 0 | 0 | 0 | 0 | 0 | 0
FC(F)(F)C(F)(F)C(F)(F)C(F)(F)C(F)(F)C(F)(F)I [Perfluoro-1-iodohexane] (max tested concentration (log10 uM): 2) | 0 | 0 | 0 | 0 | 0 | 0 | 0 | 0 | 0
O=C(O)C(F)(F)C(F)(F)C(F)(F)OC(F)(F)F [Perfluoro(4-methoxybutanoic acid)] (max tested concentration (log10 uM): 2) | 0 | 0 | 0 | 0 | 0 | 0 | 0 | 0 | 0
O=C(Cl)C(F)(F)C(F)(F)C(F)(F)C(F)(F)C(F)(F)C(F)(F)C(F)(F)F [Pentadecafluorooctanoyl chloride] (max tested concentration (log10 uM): 2) | 0 | 12.5 | 16.7 | 16.7 | 16.7 | 12.5 | 16.7 | 12.5 | 16.7
O=S(=O)(O)CCC(F)(F)C(F)(F)C(F)(F)C(F)(F)F [4:2 Fluorotelomer sulfonic acid] (max tested concentration (log10 uM): 2) | 0 | 0 | 0 | 0 | 0 | 0 | 0 | 0 | 0
O=C(O)C(F)(F)OC(F)(F)C(F)(F)OC(F)(F)C(F)(F)C(F)(F)C(F)(F)F [Perfluoro-3,6-dioxadecanoic acid] (max tested concentration (log10 uM): 2) | 0 | 0 | 62.5 | 75 | 56.2 | 6.25 | 50 | 31.2 | 68.8
C=CC(=O)OCC(F)(F)C(F)(F)C(F)(F)C(F)(F)C(F)(F)C(F)(F)C(F)(F)C(F)F [1H,1H,9H-Perfluorononyl acrylate] (max tested concentration (log10 uM): 2) | 0 | 0 | 16.7 | 9.09 | 9.09 | 2.27 | 0 | 4.55 | 9.09
O=C(O)C(F)(F)C(F)(F)C(F)F [4H-Perfluorobutanoic acid] (max tested concentration (log10 uM): 2) | 0 | 0 | 0 | 0 | 0 | 0 | 0 | 0 | 0
NCC(F)(F)C(F)(F)C(F)(F)C(F)(F)C(F)(F)C(F)(F)C(F)(F)F [1H,1H-Perfluorooctylamine] (max tested concentration (log10 uM): 2) | 0 | 0 | 20 ± 28 | 15 ± 21 | 22.5 ± 32 | 0 | 0 | 0 | 20 ± 28
O=C(Cl)C(F)(F)C(F)(F)C(F)(F)C(F)(F)C(F)(F)C(F)(F)F [Perfluoroheptanoyl chloride] (max tested concentration (log10 uM): 2) | 0 | 8.33 | 16.7 | 16.7 | 16.7 | 8.33 | 0 | 4.17 | 16.7
CCOC(=O)CC(=O)C(F)(F)C(F)(F)F [Ethyl pentafluoropropionyl acetate] (max tested concentration (log10 uM): 2) | 0 | 0 | 0 | 0 | 0 | 0 | 0 | 0 | 0
NC(=O)C(F)(F)C(F)(F)C(F)(F)C(F)F [Perfluoropentanamide] (max tested concentration (log10 uM): 2) | 0 | 0 | 0 | 0 | 0 | 0 | 0 | 0 | 0

— the supplement of paper PMC11281043
